Where two headings read alike, the source gives them in different places.
Tests used:
[1] = system: HNT-34 cells; test: Anti-proliferation 72-hour CTG assay, HNT-34; format: cell-based; conditions: Homo sapiens
Experimental: (§1) A plethora of AML cell lines were treated with serial dilutions of Compound D. IC50 value of the anti-proliferation effect of Compound D (as determined in 72-hour CTG assays) in each cell line is summarized in Table 1.

[2] = system: KG-1 cells; test: Anti-proliferation CTG assay, KG-1; format: cell-based, human
Experimental: The effect of depletion of GSPT1 on the anti-proliferative effect of compound Compound D and Compound E was also determined in human acute myelogenous leukemia cell lines AML and KG1. […]

[3] = system: KG-1a cells; test: Anti-proliferation 72-hour CTG assay, KG-1a; format: cell-based; conditions: Homo sapiens, read-out: IC50 of the anti-proliferative effect
Experimental: as §1

[4] = system: MV-4-11 cells; test: Anti-proliferation 72-hour CTG assay, MV-4-11; format: cell-based; conditions: Homo sapiens, MV4-11; MV-4-11, 72-hour CTG assay; read-out: IC50 of the anti-proliferative effect
Experimental: as §1

[5] = system: OCI-AML3 cells; test: Anti-proliferation CTG assay, OCI-AML3; format: cell-based, human
Experimental: as §1
The effect of depletion of GSPT1 on the anti-proliferative effect of compound Compound D and Compound E was also determined in human acute myelogenous leukemia cell lines AML and KG1. Cells were infected with lentiviral vectors expressing control shRNA, shGSPT1-1 or shGSPT1-3 for 7 days and then treated with DMSO, Compound D or Compound E in a titration from 0.0001 μM to 1 μM. Two days after treatment, cell proliferation was measured by CellTiter-Glo cell viability. […] Both shGSPT1-1 and shGSPT1-3 reduced the expression of GSPT1, eRF1, and slightly of CRBN.

[6] = system: HNT-34 cells; test: Apoptosis (caspase 3/7 activation), HNT-34; format: cell-based, human; conditions: for EC50: Homo sapiens, read-out: Compound D-induced Apoptosis EC50
[7] = system: HL-60 cells; test: Apoptosis (caspase 3/7 activation), HL-60; format: cell-based, human; conditions: for EC50: Homo sapiens, read-out: Compound D-induced Apoptosis EC50
[8] = system: AML-193 cells; test: Apoptosis (caspase 3/7 activation), AML-193; format: cell-based, human; conditions: for EC50: Homo sapiens, read-out: Compound D-induced Apoptosis EC50
[9] = system: PARP; test: PARP cleavage, western blot, HNT-34; format: cell-based, human; conditions: HNT-34, 10 nM Compound D
Experimental: The time course of GSPT1 degradation was monitored by western blot analysis of HNT-34 AML cells and normal PBMCs (FIGS. 32A-32D) following incubation with Compound D (1, 10, and 100 nM).

[10] = system: ATF3, DDIT3, cleaved Caspases, cleaved PARP; test: UPR and apoptosis pathway components in KG1 cells; format: cell-based, human; conditions: KG1, 200 nM
Experimental: Cells were treated with DMSO alone or 200 nM Compound D. After 2, 4, or 6 hours, the expression levels of various cellular components along UPR or apoptosis pathways were measured. […] Reduction of BIP indicates UPR.
Cells were treated with DMSO alone, 200 nM Compound D, or 200 nM Compound E. After 8 or 12 hours, the expression levels of various cellular components along UPR or apoptosis pathways were measured. […] Reduction of BIP indicates UPR.
To further investigate the timeline of cellular events upon Compound D treatment, KG1 cells were treated with DMSO alone or 200 nM Compound D. At 2, 4, 6, 8, 10, or 12 hours, the expression levels of various cellular components along ATF4 or apoptosis pathways were measured.

[11] = system: proteins in the UPR pathway, PARP; test: UPR pathway proteins and PARP cleavage, western blot, healthy PBMCs; format: cell-based, human; conditions: 10 nM Compound D
[12] = system: ATF3 and DDIT3 mRNA; test: ATF3 and DDIT3 mRNA induction, HNT-34; format: cell-based, human
Text: The kinetics of induction of mRNA for UPR factors ATF3 and DDIT3 in HNT-34 cells also strongly differed from that in PBMCs. […] This is also consistent with the reduced cytotoxicity observed for Compound D in normal adult lymphocytes as compared with tumor cells (data not shown).

[13] = target: GSPT1 (Homo sapiens, UniProt P15170+Q96SW2); test: GSPT1 protein reduction, western analysis, Kasumi-1; format: cell-based; design: reduction in GSPT1 protein level was evaluated in human normal PBMCs; endogenous in cells; host or cells: primary PBMCs from normal donors (ID 4328, 4379) and AML patients (ID 11SH, 09P6)
Experimental: The time course of the reduction in GSPT1 by Compound D also was studied for up to 48 hours. The progressive degradation of GSPT1 over the course of 1 to 20 hours was evident in the presence of all concentrations of Compound D studied from 3 to 300 nM in HNT-34, HL-60, and ML-2 cells, with little GSPT1 remaining by 20 hours at 100 or 300 nM Compound D in HNT-34 or HL-60 cells (FIG. 34 and FIG. 35C). Time-dependent reduction in GSPT1 was also observed in KG-1 and OCI-AML2 cells at 3 to 1000 nM Compound D, with little GSPT1 remaining in KG-1 cells at 100 to 300 nM at 24 hours or in OCI-AML2 cells at 300 and 1000 nM at 24 hours (FIG. 35D). Loss of GSPT1 occurred more slowly in Kasumi-1, AML-193, and […] cells. […] A positive association (r^2=0.50; […]

GSPT1, sequence (P15170 1-637 isoform P15170-3): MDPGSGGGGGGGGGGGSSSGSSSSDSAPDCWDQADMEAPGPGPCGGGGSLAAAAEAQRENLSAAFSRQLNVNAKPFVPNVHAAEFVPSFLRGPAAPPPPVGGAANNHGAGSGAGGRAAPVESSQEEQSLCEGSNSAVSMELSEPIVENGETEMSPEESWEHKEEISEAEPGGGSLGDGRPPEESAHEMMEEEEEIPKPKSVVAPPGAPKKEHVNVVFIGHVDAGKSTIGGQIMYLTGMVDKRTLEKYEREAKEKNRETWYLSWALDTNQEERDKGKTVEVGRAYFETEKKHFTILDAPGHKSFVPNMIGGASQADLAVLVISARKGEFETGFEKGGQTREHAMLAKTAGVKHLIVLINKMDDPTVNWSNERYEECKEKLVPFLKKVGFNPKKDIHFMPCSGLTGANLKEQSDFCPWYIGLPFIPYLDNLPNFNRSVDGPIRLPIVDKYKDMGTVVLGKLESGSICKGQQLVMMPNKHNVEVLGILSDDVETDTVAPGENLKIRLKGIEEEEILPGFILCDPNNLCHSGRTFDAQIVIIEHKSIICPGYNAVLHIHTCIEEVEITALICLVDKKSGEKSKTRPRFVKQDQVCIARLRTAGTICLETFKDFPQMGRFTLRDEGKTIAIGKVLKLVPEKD
GSPT1, sequence (Q96SW2 whole entry): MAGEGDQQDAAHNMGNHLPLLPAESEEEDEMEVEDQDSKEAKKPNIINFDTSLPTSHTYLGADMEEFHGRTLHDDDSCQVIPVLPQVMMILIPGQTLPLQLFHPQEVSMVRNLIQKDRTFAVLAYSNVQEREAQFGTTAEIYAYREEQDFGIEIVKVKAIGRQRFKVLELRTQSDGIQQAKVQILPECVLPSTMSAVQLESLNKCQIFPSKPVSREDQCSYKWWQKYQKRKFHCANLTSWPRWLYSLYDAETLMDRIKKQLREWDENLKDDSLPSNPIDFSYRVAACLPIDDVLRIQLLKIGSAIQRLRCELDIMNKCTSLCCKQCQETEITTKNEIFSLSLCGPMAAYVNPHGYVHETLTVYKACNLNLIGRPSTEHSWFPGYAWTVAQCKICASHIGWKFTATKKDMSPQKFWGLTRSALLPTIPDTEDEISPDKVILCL
GSPT1, sequence (Q16531 whole entry partner): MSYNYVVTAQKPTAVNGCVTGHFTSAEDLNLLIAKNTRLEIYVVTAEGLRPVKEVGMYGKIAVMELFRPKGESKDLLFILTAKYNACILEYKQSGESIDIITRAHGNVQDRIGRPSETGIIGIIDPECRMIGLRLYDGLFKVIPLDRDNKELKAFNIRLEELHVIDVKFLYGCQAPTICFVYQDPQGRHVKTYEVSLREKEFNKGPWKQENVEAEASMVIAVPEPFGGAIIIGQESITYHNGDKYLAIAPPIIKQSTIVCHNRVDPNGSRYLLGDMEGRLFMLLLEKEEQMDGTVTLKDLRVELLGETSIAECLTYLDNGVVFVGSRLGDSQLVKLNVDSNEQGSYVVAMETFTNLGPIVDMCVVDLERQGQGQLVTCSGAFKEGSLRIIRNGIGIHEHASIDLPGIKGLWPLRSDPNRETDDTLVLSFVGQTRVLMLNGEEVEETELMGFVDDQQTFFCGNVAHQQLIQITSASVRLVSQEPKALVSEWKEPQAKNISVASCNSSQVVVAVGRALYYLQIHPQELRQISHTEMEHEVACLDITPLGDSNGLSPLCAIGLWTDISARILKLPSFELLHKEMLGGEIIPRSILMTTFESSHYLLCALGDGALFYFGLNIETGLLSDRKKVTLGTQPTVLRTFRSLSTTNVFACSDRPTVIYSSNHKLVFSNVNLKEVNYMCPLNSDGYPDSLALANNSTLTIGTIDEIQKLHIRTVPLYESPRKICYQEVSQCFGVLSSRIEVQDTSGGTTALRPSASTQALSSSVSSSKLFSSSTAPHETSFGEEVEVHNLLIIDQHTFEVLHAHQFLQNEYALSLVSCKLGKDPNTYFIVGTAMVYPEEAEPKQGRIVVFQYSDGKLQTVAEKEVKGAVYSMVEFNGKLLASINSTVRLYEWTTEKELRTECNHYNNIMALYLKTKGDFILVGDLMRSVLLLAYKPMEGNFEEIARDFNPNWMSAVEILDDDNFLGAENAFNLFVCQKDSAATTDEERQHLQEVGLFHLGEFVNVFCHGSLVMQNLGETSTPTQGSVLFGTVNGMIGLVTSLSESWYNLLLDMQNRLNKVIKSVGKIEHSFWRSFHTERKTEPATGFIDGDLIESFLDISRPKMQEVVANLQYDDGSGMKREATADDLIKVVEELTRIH

Structure (SMILES): O=C1CCC(N2Cc3cc(CNC(=O)C(F)(F)c4ccc(Cl)cc4)ccc3C2=O)C(=O)N1 (stereo not shown) [Compound D, 2-(4-chlorophenyl)-N-((2-(2,6-dioxopiperidin-3-yl)-1-oxoisoindolin-5-yl)methyl)-2,2-difluoroacetamide]
- IC50 ([1]; HNT-34, read-out: anti-proliferative activity IC50): 3 nM
- IC50 ([1]; HNT-34, 72-hour CTG assay, read-out: IC50 of the anti-proliferative effect): 3 nM
- IC50 ([2]; Homo sapiens, KG-1, KG-1, Compound F 0 μM, read-out: Inhibition of Cell Proliferation by Compound D (CTG assay) IC50): 10 nM
- IC50 ([2]; Homo sapiens, KG-1, KG-1, Compound F 30 μM, read-out: Inhibition of Cell Proliferation by Compound D (CTG assay) IC50): 1500 nM
- IC50 ([2]; Homo sapiens, KG-1, 72-hour CTG assay, read-out: IC50 of the anti-proliferative effect): 15 nM
- cell proliferation (CellTiter-Glo) ([2]; KG1 parental or control shRNA cells, 0.0001 μM to 1 μM, two days): exhibited anti-proliferative effect, particularly at high concentration
- IC50 ([2]; read-out: Inhibition of Cell Proliferation by Compound D (CTG assay) IC50): 6800 nM
- IC50 [3]: 21 nM
- IC50 [4]: 29 nM
- cell proliferation (CellTiter-Glo) ([5]; AML3 parental or control shRNA cells, 0.0001 μM to 1 μM, two days): exhibited anti-proliferative effect, particularly at high concentration
- IC50 ([5]; Homo sapiens, OCI-AML-3, OCI-AML3, 72-hour CTG assay, read-out: IC50 of the anti-proliferative effect): 3400 nM
- Average Percent Increase in Apoptosis at 123 nM Compound D, Apoptosis (12 hr) ([6]; HNT-34, 123 nM, 12 hr): 3%
- Average Percent Increase in Apoptosis at 123 nM Compound D, Apoptosis (24 hr) ([6]; HNT-34, 123 nM, 24 hr): 12%
- Average Percent Increase in Apoptosis at 123 nM Compound D, Apoptosis (48 hr) ([6]; HNT-34, 123 nM, 48 hr): 32%
- EC50 ([6]; HNT-34, 24 hr): 7 nM
- EC50 ([6]; HNT-34, 48 hr): 4 nM
- EC50 ([6]; HNT-34, 96 hr): 2 nM
- average percent increase in apoptosis ([7]; HL-60, 41 nM, 24 hour time-point): 9%
- Average Percent Increase in Apoptosis at 123 nM Compound D, Apoptosis (12 hr) ([7]; HL-60, 123 nM, 12 hr): 1%
- Average Percent Increase in Apoptosis at 123 nM Compound D, Apoptosis (24 hr) ([7]; HL-60, 123 nM, 24 hr): 19%
- Average Percent Increase in Apoptosis at 123 nM Compound D, Apoptosis (48 hr) ([7]; HL-60, 123 nM, 48 hr): 62%
- EC50 ([7]; HL-60, 24 hr): 73 nM
- EC50 ([7]; HL-60, 48 hr): 15 nM
- EC50 ([7]; HL-60, 72 hr): 8 nM
- Average Percent Increase in Apoptosis at 123 nM Compound D, Apoptosis (12 hr) ([8]; AML-193, 123 nM, 12 hr): 0%
- Average Percent Increase in Apoptosis at 123 nM Compound D, Apoptosis (24 hr) ([8]; AML-193, 123 nM, 24 hr): 5%
- Average Percent Increase in Apoptosis at 123 nM Compound D, Apoptosis (48 hr) ([8]; AML-193, 123 nM, 48 hr): 40%
- EC50 ([8]; AML-193, 48 hr): 89 nM
- EC50 ([8]; AML-193, 72 hr): 47 nM
- EC50 ([8]; AML-193, 96 hr): 60 nM
- time of PARP cleavage [9]: 24 h
- time at which levels of apoptotic markers started to increase [10]: approximately 6 hrs
- level of ATF3, DDIT3, cleaved Caspase-3, cleaved Caspase-8, and cleaved PARP ([10]; 8 or 12 hours): increased the level
- induction of proteins in the UPR pathway or cleavage of PARP [11]: did not occur
- time of induction of ATF3 and DDIT3 mRNA [12]: ≤ 8 h
- Percent Reduction at 100 nM Compound D GSPTI (8 hr) ([13]; Kasumi-1, 100 nM, 8 hr): 64%
- GSPT1 reduction ([13]; Kasumi-1, 300 nM Compound D, 8 hours): 51%
